Measurements taken from patent US8076352B2, “Administration of carboline derivatives useful in the treatment of cancer and other diseases” (PTC Therapeutics, Inc., priority 2004, dated 2011).
pEC50: −log10 of the molar value.

System: hypoxia-inducible endogenous VEGF expression in HeLa cells
Experiment: Hypoxia-inducible endogenous VEGF expression, VEGF ELISA of conditioned media (dose-response EC50)
Assay type: cell-based
Summary of the method: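 HeLa cells were cultured 24-48 h under hypoxia (1% O2, 5% CO2, balance N2) with or without compound. Conditioned-media VEGF protein was measured by ELISA against a standard curve. EC50 and CC50 come from percentage-inhibition curves over, e.g., seven concentrations, with maximal inhibition set at 100%.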

[1] = Homo sapiens, HeLa cells, hypoxic conditions (1% O2)
[2] = Homo sapiens, HeLa cells, hypoxic conditions (1% O2, 5% CO2)
[3] = Homo sapiens, HeLa cells under hypoxic conditions

Row | pEC50 [1] | pEC50 [3] | SMILES | also measured
1 | – | 6.00 to 6.70 | Fc1ccc(C2NCCc3c2[nH]c2ccc(Br)cc32)cc1F (stereo not drawn) [Compound 201] | –
2 | – | < 6.00 | COCCOCC(=O)N1CCc2c([nH]c3ccc(Br)cc23)C1c1ccc(Cl)cc1 (stereo not drawn) [Compound 238] | –
3 | – | 6.00 to 6.70 | COc1ccc(C2c3[nH]c4ccc(Cl)cc4c3CCN2C(=O)O[C@H]2C[C@@H](C)CC[C@@H]2C(C)C)cc1 (stereo partly drawn) [Compound 192] | –
4 | 6.00 to 6.70 | – | CCOC(=O)N1CCc2c([nH]c3ccc(Cl)cc23)C1c1ccc(C(=O)NCCCN2CCOCC2)cc1 (stereo not drawn) [Compound 534] | –
5 | – | 7.40 to 8.10 | COc1ccc(C2c3[nH]c4ccc(Cl)cc4c3CCN2C(=O)OCCCl)cc1 (stereo not drawn) [Compound 61] | –
6 | > 8.10 | – | C=CCOc1ccc(C2c3[nH]c4ccc(Cl)cc4c3CCN2C(=O)Oc2ccc(OC)cc2)cc1 (stereo not drawn) [Compound 432] | –
7 | – | 6.00 to 6.70 | COc1ccc(C2c3[nH]c4ccc(Cl)cc4c3CCN2C(=O)N2CCCC2)cc1 (stereo not drawn) [Compound 333] | –
8 | 6.70 to 7.40 | – | CCOC(=O)N1CCc2c([nH]c3ccc(Cl)cc23)C1c1ccc(S(=O)(=O)N2CCOCC2)cc1 (stereo not drawn) [Compound 487] | –
9 | – | 7.40 to 8.10 | O=C(OCCCl)N1CCc2c([nH]c3ccc(Cl)cc23)C1c1cccc(F)c1 (stereo not drawn) [Compound 116] | –
10 | – | 6.00 to 6.70 | COC(=O)CCC(=O)N1CCc2c([nH]c3ccc(Cl)cc23)C1c1ccc(OC)cc1 (stereo not drawn) [Compound 369] | –
11 | – | < 6.00 | Clc1ccc2[nH]c3c(c2c1)CCN(Cc1ccoc1)C3c1ccco1 (stereo not drawn) [Compound 268] | –
12 | – | > 8.10 | CCOC(=O)N1CCc2c([nH]c3ccc(Br)cc23)C1c1cccc(Br)c1 (stereo not drawn) [Compound 44] | –
13 | – | 7.40 to 8.10 | O=C(OCCCl)N1CCc2c([nH]c3ccc(Cl)cc23)C1c1ccc([N+](=O)[O-])cc1 (stereo not drawn) [Compound 89] | –
14 | 6.00 to 6.70 | – | O=C(Oc1ccc(F)cc1)N1CCc2c([nH]c3ccc(Cl)cc23)C1c1ccc(O)cc1 (stereo not drawn) [Compound 575] | –
15 | – | 6.70 to 7.40 | CCOC(=O)N1CCc2c([nH]c3ccc(Cl)cc23)C1c1ccc(S(C)(=O)=O)cc1 (stereo not drawn) [Compound 358] | –
16 | > 8.10 | – | O=C(Oc1ccc(F)cc1)N1CCc2c([nH]c3ccc(Cl)cc23)C1c1ccc(OCCCCCCn2cncn2)cc1 (stereo not drawn) [Compound 781] | –
17 | – | 6.00 to 6.70 | Clc1ccc(C2NCCc3c2[nH]c2ccc(Br)cc32)cc1 (stereo not drawn) [Compound 181] | –
18 | – | 6.70 to 7.40 | CCOC(=O)N1CCc2c([nH]c3ccc(Br)cc23)C1c1cccc(Cl)c1Cl (stereo not drawn) [Compound 148] | –
19 | 6.00 to 6.70 | – | CCOC(=O)N1CCc2c([nH]c3ccc(Cl)cc23)C1c1ccc(C(=O)N2CCC(N3CCCC3)CC2)cc1 (stereo not drawn) [Compound 527] | –
20 | 6.00 to 6.70 | – | COc1ccc(C2c3[nH]c4ccc(OCc5ccccc5)cc4c3CCN2C(=O)Oc2ccc(Cl)cc2)cc1 (stereo not drawn) [Compound 616] | –
21 | > 8.10 | – | CC/C=C/CCC1c2[nH]c3ccc(Cl)cc3c2CCN1C(=O)OCC (stereo not drawn) [Compound 439] | –
22 | – | 7.40 to 8.10 | ON1CCc2c([nH]c3ccc(Br)cc23)C1c1cccc(F)c1F (stereo not drawn) [Compound 73] | –
23 | – | < 6.00 | COc1ccc(C2NCCc3c2[nH]c2ccc(F)cc32)cc1 (stereo not drawn) [Compound 315] | –
24 | – | < 6.00 | CC(=O)Nc1ccc(C2NCCc3c2[nH]c2ccc(Cl)cc32)cc1 (stereo not drawn) [Compound 294] | –

The remaining lines, values behind:

Row | SMILES | pEC50 [1] | pEC50 [3] | also measured
25 | CN1CCN(CCCCCCOc2ccc(C3c4[nH]c5ccc(Cl)cc5c4CCN3C(=O)Oc3ccc(F)cc3)cc2)CC1 (stereo not drawn) [Compound 778] | > 8.10 | – | –
26 | COCCN(C)CC(O)COc1ccc(C2c3[nH]c4ccc(Cl)cc4c3CCN2C(=O)Oc2ccc(F)cc2)cc1 (stereo not drawn) [Compound 936] | – | – | pEC50 [2]: > 8.10
27 | COc1ccc(C2NCCc3c2[nH]c2ccc(Br)cc32)cc1O (stereo not drawn) [Compound 379] | – | < 6.00 | –
28 | O=C(Oc1ccc(F)cc1)N1CCc2c([nH]c3ccc(Cl)cc23)C1c1ccc(OCC(O)CN2CCSCC2)cc1 (stereo not drawn) [Compound 925] | – | – | pEC50 [2]: > 8.10
29 | COc1ccc(C2c3[nH]c4ccc(Br)cc4c3CCN2c2ncccn2)cc1 (stereo not drawn) [Compound 329] | – | < 6.00 | –
30 | CC(C)OC(=O)Nc1ccc(C2c3[nH]c4ccc(Cl)cc4c3CCN2C(=O)Oc2ccc(Cl)cc2)cc1 (stereo not drawn) [Compound 489] | 6.70 to 7.40 | – | –
31 | COC(=O)c1ccc(C2c3[nH]c4ccc(Br)cc4c3CCN2C(=O)Oc2ccc(F)cc2)cc1 (stereo not drawn) [Compound 592] | > 8.10 | – | –
32 | O=[N+](O)c1ccc(C2NCCc3c2[nH]c2ccc(Cl)cc32)cc1 (stereo not drawn) [Compound 185] | – | – | pEC50 (HeLa cells under hypoxic conditions): 6.00 to 6.70
33 | Cc1ccc(OC(=O)N2CCc3c([nH]c4ccc(Cl)cc34)C2c2ccc(OCCCn3ccnc3)cc2)cc1 (stereo not drawn) [Compound 900] | – | – | pEC50 [2]: > 8.10
34 | CCOC(=O)N1CCc2c([nH]c3ccc(Cl)cc23)C1c1ccsc1 (stereo not drawn) [Compound 513] | 6.70 to 7.40 | – | –
35 | C=CCOc1ccc(C2c3[nH]c4ccc(Cl)cc4c3CCN2C(=O)OCC(C)C)cc1 (stereo not drawn) [Compound 414] | > 8.10 | – | –
36 | CCOC(=O)N1CCc2c([nH]c3ccc(Cl)cc23)C1c1ccc(C(=O)NCCCN2CCCC2=O)cc1 (stereo not drawn) [Compound 512] | 6.70 to 7.40 | – | –
37 | O=C(Oc1ccc(Cl)cc1)N1CCc2c([nH]c3ccc(Cl)cc23)C1c1ccc(OCCCCCCN2CCOCC2)cc1 (stereo not drawn) [Compound 786] | > 8.10 | – | –
38 | Clc1ccc2[nH]c3c(c2c1)CNCC3c1ccccc1 (stereo not drawn) [Compound 248] | – | < 6.00 | –
39 | CC(=O)N1CCN(CCCOc2ccc(C3c4[nH]c5ccc(Cl)cc5c4CCN3C(=O)Oc3ccc(Cl)cc3)cc2)CC1 (stereo not drawn) [Compound 903] | – | – | pEC50 [2]: > 8.10
40 | COC(=O)N1CCc2c([nH]c3ccc(Cl)cc23)C1c1ccccc1F (stereo not drawn) [Compound 108] | – | 7.40 to 8.10 | –
41 | O=C(Oc1ccc(Br)cc1)N1CCc2c([nH]c3ccc(Cl)cc23)C1c1ccc(OCC(O)CO)cc1 (stereo not drawn) [Compound 630] | > 8.10 | – | –

Row | SMILES | pEC50 [1] | pEC50 [3] | also measured
42 | O=C(Oc1ccc(F)cc1)Oc1ccc(C2c3[nH]c4ccc(Cl)cc4c3CCN2C(=O)Oc2ccc(F)cc2)cc1 (stereo not drawn) [Compound 576] | 6.70 to 7.40 | – | –
43 | O=C(Oc1ccc(F)cc1)N1CCc2c([nH]c3ccc(Cl)cc23)C1c1ccc(OCCCN2CCSCC2)cc1 (stereo not drawn) [Compound 991] | – | – | pEC50 [2]: 6.70 to 7.40
44 | CCOC(=O)N1CCc2c([nH]c3ccc(Cl)cc23)C1c1cccc(C(=O)NC)c1 (stereo not drawn) [Compound 524] | 6.00 to 6.70 | – | –
45 | O=C(Oc1ccc(Cl)cc1)N1CCc2c([nH]c3ccc(Cl)cc23)C1c1ccc(OCC(O)CN2CCSCC2)cc1 (stereo not drawn) [Compound 923] | – | – | pEC50 [2]: > 8.10
46 | CCOC(=O)N1CCc2c([nH]c3ccc(Cl)cc23)C1c1ccc(O)cc1 (stereo not drawn) [Compound 128] | – | 6.70 to 7.40 | –
47 | C=CC(=O)Nc1ccc(C2c3[nH]c4ccc(Cl)cc4c3CCN2C(=O)Oc2ccc(Cl)cc2)cc1 (stereo not drawn) [Compound 500] | 6.70 to 7.40 | – | –
48 | Brc1cccc(C2NCCc3c2[nH]c2ccc(Br)cc32)c1 (stereo not drawn) [Compound 213] | – | 6.00 to 6.70 | –
49 | O=C(O)C1Cc2c([nH]c3ccccc23)C(c2ccccc2)N1 (stereo not drawn) [Compound 314] | – | < 6.00 | –
50 | CC(=O)Oc1ccc(C2c3[nH]c4ccc(Cl)cc4c3CCN2C(=O)Oc2ccc(Cl)cc2)cc1 (stereo not drawn) [Compound 463] | 7.40 to 8.10 | – | –
51 | O=C(Oc1ccccc1Cl)N1CCc2c([nH]c3ccc(Cl)cc23)C1c1ccc(F)cc1 (stereo not drawn) [Compound 588] | 6.70 to 7.40 | – | –
52 | CCCOC(=O)N1CCc2c([nH]c3ccc(Cl)cc23)C1c1ccc(Br)cc1 (stereo not drawn) [Compound 41] | – | > 8.10 | –
53 | CC(C)OC(=O)N1CCc2c([nH]c3ccc(Cl)cc23)C1c1cccc(C(F)(F)F)c1 (stereo not drawn) [Compound 85] | – | 7.40 to 8.10 | –
54 | COc1ccc(C2NC(C(=O)O)Cc3c2[nH]c2ccc(Br)cc32)cc1 (stereo not drawn) [Compound 300] | – | < 6.00 | –
55 | CN1CCCC(COc2ccc(C3c4[nH]c5ccc(Cl)cc5c4CCN3C(=O)Oc3ccccc3Cl)cc2)C1 (stereo not drawn) [Compound 976] | – | – | pEC50 [2]: 6.70 to 7.40
56 | C[C@H](NC(=O)OC(C)(C)C)C(=O)N1CCc2c([nH]c3ccc(Cl)cc23)C1c1ccccc1 (stereo partly drawn) [Compound 166] | – | 6.70 to 7.40 | –
57 | CS(=O)(=O)Nc1ccc(C2c3[nH]c4ccc(Cl)cc4c3CCN2C(=O)Oc2ccc(Cl)cc2)cc1 (stereo not drawn) [Compound 974] | – | – | pEC50 [2]: 6.70 to 7.40
